The structures appear in SMILES notation.

One series relates to primary cortical neurons. Put plainly: Neuroprotection against OGD/R injury, MTT cell viability. The series is classed as cell-based. The settings on record: Rattus norvegicus, Primary cortical neuron, compound 10 μM, control 100%, OGD/R group 40.4%, read-out: Cell viability (MTT) after OGD/R. The method, then: The parental compounds Clau F and CZ-7 have remarkable neuroprotective effects. To further confirm whether the derivatives retain activity, an OGD/R model was performed in primary cortical neurons, and 3-(4,5-dimethylthiazol-2-yl)-2,5-diphenyltetrazolium bromide (MTT) assays were used to test cell viability. […]. According to the experimental results above, compound 6bd was selected as the candidate compound for the subsequent investigations.
[…]. All cell suspensions were grown in neurobasal/B27 medium with 100-U/mL penicillin and 100-μg/mL streptomycin. The cells were plated in poly-L-lysine (PLL, 0.1 mg/mL)-coated multiwell plates or chamber slides and maintained at 37 °C in a humidified atmosphere of 5% CO2 and 95% air. Seven day cultures were used for treatment. The treatment methods were similar to those used for PC12, but the concentrations of H2O2 and sodium dithionite were 100 μM and 2 mM, respectively.
Cell viability was determined by MTT assay. Cells were incubated with 5 mg/mL MTT (10 μL) at 37 °C for 4 h. The formazan crystals were dissolved, and absorbance was determined at 570 nm using a Microplate Reader (Thermo, Germany). The cell viability was expressed as a percentage of the optical density (OD) value of the control cultures.
Figure 2 Neuroprotective activity screening of 6aa–ad, 6ba–bf, 6ca–cd, and CZ-7 at 10 μM in primary cortical neurons induced by oxygen–glucose deprivation/reoxygenation (OGD/R). Neurons were exposed to […] sodium dithionite and reoxygenation. A 3-(4,5-dimethylthiazol-2-yl)-2,5-diphenyltetrazolium bromide (MTT) assay was used to test the cell viability. The absorbance of normal cells was regarded as 100%. Error bars represent the standard deviation. ### p < 0.001 vs. control; ** p < 0.05, *** p < 0.01 vs. model (means ± standard deviation, n = 6).

The target of series [1] is butyrylcholinesterase (BuChE, from equine serum) (Equus caballus, UniProt P81908). Put plainly: biochemical. The settings on record: eqBuChE; mean ± spread.
In another series the target is T1, AChE (from electric eel) (Electrophorus electricus, UniProt O42275).
T1 construct: purchased Sigma-Aldrich
Put plainly: biochemical. Conditions: eeAChE; mean ± spread.

Series [2] can be described thus: Singlet oxygen scavenging by ESR spectroscopy (TEMP, UVA light). The series is classed as physicochemical. The settings on record: 10^−2 mol/L compound, 5 × 10^−2 mol/L TEMP in DMSO, UVA light 1 min. The method, then:
Oxidative stress caused by reactive oxygen (for example, singlet oxygen and hydroxyl radical) is related to the death of neurons and the formation of intracellular Aβ oligomer. Drugs designed to prevent the formation or removal of free radicals in the brain are beneficial for AD. The main technique for detecting organic free radicals is electron spin resonance (ESR) spectroscopy. This technology can detect radical concentrations on the order of 10 nM or less under favorable conditions and has high sensitivity. Therefore, compound 6bd was tested for its ability to scavenge active oxygen by using ESR spectroscopy. For comparison, edaravone (Eda) was used as a reference.
ESR signals were recorded with a 10 mW incident microwave and […] field modulation of 1 G. The scan width was 150 G for 2, 2, 6, 6-tetramethylpiperidine (TEMP) experiments. All measurements were performed at room temperature (RT). Briefly, 5 × 10^−2 mol/L TEMP and 10^−2 mol/L 6bd or Eda were mixed in DMSO, and ESR signals were obtained after exposure to UVA light for 1 min.

The nature of the next series: in vitro. The series is classed as in vitro ADME. The settings on record: PAMPA-BBB. The method, then:
A blood–brain barrier (BBB) penetration assay in vitro is essential for anti-AD drug development. […] The compounds’ blood–brain barrier penetration was evaluated by using the parallel artificial membrane permeation assay (PAMPA) described by Di et al.. The two commercial drugs were purchased from Aladdin (China). Porcine brain lipid was obtained from Sigma (China). The donor microplate (polyvinylidene fluoride (PVDF) membrane, pore size 0.45 μm) and acceptor microplate were both from Millipore (China). The 96-well ultraviolet (UV) plate (COSTAR) was from Corning Incorporated (USA). The detailed procedure was described in [26, 27].
In general terms: The PAMPA barrier holds no transporters, so it reflects passive diffusion.

Sequence of butyrylcholinesterase (BuChE, from equine serum) (P81908 whole entry): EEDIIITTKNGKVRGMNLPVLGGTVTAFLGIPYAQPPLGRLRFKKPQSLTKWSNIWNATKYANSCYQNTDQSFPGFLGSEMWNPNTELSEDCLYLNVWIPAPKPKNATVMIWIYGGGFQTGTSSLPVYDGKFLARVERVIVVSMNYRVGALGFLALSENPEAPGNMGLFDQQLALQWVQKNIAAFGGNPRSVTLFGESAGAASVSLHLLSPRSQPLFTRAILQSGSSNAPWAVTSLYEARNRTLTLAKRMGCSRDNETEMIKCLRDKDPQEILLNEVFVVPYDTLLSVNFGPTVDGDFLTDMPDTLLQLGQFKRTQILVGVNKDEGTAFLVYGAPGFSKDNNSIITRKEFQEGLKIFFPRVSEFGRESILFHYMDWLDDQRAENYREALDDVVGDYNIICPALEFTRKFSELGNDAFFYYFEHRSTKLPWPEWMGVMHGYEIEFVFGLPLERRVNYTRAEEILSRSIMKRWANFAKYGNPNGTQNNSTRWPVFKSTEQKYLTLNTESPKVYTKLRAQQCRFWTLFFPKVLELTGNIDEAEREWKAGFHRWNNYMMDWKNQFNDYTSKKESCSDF
T1 sequence (O42275 24-633): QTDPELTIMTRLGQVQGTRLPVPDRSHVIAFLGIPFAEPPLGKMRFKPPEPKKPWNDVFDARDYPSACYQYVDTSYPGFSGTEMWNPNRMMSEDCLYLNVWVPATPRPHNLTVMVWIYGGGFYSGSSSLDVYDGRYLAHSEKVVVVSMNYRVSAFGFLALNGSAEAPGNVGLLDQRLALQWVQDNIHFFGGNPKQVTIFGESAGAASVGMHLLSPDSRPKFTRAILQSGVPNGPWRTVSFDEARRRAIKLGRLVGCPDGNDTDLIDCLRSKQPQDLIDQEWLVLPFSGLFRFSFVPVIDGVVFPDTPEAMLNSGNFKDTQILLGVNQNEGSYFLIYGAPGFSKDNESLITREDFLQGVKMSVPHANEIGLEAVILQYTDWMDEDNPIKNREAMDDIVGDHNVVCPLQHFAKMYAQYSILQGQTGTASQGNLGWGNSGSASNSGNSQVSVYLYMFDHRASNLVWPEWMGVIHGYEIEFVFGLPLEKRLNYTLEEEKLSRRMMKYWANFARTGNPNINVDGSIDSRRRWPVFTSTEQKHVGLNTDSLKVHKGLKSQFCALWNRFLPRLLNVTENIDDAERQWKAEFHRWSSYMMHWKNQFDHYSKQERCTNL

In the case of `CC1(C)C=Cc2c(c(/C=C/C(=O)NCC3CCN(Cc4ccccc4F)CC3)cc3c2[nH]c2ccc(C(C)(C)C)cc23)O1` [Compound 6bb, (E)-3-(8-(tert-Butyl)-3,3-dimethyl-3,11-dihydropyrano[3,2-a]carbazol-5-yl)-N-((1-(2-fluorobenzyl)piperidin-4-yl)methyl)acrylamide], the viability at 10 µM with primary cortical neurons amounted to 109%. Further, the half-inhibitory concentration (IC50) in series [1] was determined as 5.63 ± 0.31 µM; on AChE (from electric eel), 4.08 ± 0.12 µM.

As to `Cc1ccccc1CN1CCC(CNC(=O)/C=C/c2cc3c([nH]c4ccc(C(C)(C)C)cc43)c3c2OC(C)(C)C=C3)CC1` [Compound 6bc, (E)-3-(8-(tert-Butyl)-3,3-dimethyl-3,11-dihydropyrano[3,2-a]carbazol-5-yl)-N-((1-(2-methylbenzyl)piperidin-4-yl)methyl)acrylamide], the IC50 in series [1] stood at 19 ± 0.94 µM; against AChE (from electric eel) it was 4.26 ± 0.22 µM.

Turning to `CC1(C)C=Cc2c(c(/C=C/C(=O)NCC3CCN(Cc4ccccc4Cl)CC3)cc3c2[nH]c2ccc(C(C)(C)C)cc23)O1` [Compound 6bd, (E)-3-(8-(tert-Butyl)-3,3-dimethyl-3,11-dihydropyrano[3,2-a]carbazol-5-yl)-N-((1-(2-chlorobenzyl)piperidin-4-yl)methyl)acrylamide], the “Singlet oxygen scavenging compared with edaravone (Eda)” value in series [2] was “stronger effect”. Moreover, the viability at 10 µM in the series on primary cortical neurons came to 126%. The IC50 in series [1] turned out to be 5.46 ± 0.61 µM; on AChE (from electric eel), 4.34 ± 0.46 µM. The Brain penetration classification result in “in vitro” was “good brain penetration”. Moreover, in the series “in vitro” (means ± SD of three independent experiments, read-out: Permeability Pe, Experiment), the Papp came to 4.38 ± 0.05 ×10⁻⁶ cm/s.

Consider `CC1(C)C=Cc2c(c(/C=C/C(=O)NCC3CCN(Cc4cccc(Cl)c4)CC3)cc3c2[nH]c2ccc(C(C)(C)C)cc23)O1` [Compound 6be, (E)-3-(8-(tert-Butyl)-3,3-dimethyl-3,11-dihydropyrano[3,2-a]carbazol-5-yl)-N-((1-(3-chlorobenzyl)piperidin-4-yl)methyl)acrylamide], for which, in the series on primary cortical neurons, the viability at 10 µM turned out to be 105%. For the same molecule, the figures for the 50% inhibitory concentration (IC50) (in series [1]; against AChE (from electric eel)) were 6.36 ± 1.21 µM and 1.69 µM, respectively.

For the molecule `CC1(C)C=Cc2c(c(/C=C/C(=O)NCC3CCN(Cc4ccc(Cl)cc4)CC3)cc3c2[nH]c2ccc(C(C)(C)C)cc23)O1` [Compound 6bf, (E)-3-(8-(tert-Butyl)-3,3-dimethyl-3,11-dihydropyrano[3,2-a]carbazol-5-yl)-N-((1-(4-chlorobenzyl)piperidin-4-yl)methyl)acrylamide], the viability at 10 µM in the series on primary cortical neurons came to 107%. Further, the IC50 came to 12.1 ± 0.76 µM in series [1] and 1.63 ± 0.3 µM at AChE (from electric eel).

Take `COc1ccc2[nH]c3c4c(c(/C=C/C(=O)NCC5CCN(Cc6ccccc6)CC5)cc3c2c1)OC(C)(C)C=C4` [Compound 6bg, (E)-N-((1-Benzylpiperidin-4-yl)methyl)-3-(8-methoxy-3,3-dimethyl-3,11-dihydropyrano[3,2-a]carbazol-5-yl)acrylamide]: the half-inhibitory concentration (IC50) in series [1] was determined as 74.9 ± 3.21 µM; against AChE (from electric eel) it was 27.7 ± 5.15 µM.

For `COc1ccc2[nH]c3c4c(c(/C=C/C(=O)NCC5CCN(Cc6ccccc6F)CC5)cc3c2c1)OC(C)(C)C=C4` [Compound 6bh, (E)-N-((1-(2-Fluorobenzyl)piperidin-4-yl)methyl)-3-(8-methoxy-3,3-dimethyl-3,11-dihydropyrano[3,2-a]carbazol-5-yl)acrylamide], the 50% inhibitory concentration (IC50) in series [1] amounted to 31.5 ± 3.88 µM; at AChE (from electric eel) it was 23.6 ± 8.31 µM.

Regarding `COc1ccc2[nH]c3c4c(c(/C=C/C(=O)NCC5CCN(Cc6ccccc6C)CC5)cc3c2c1)OC(C)(C)C=C4` [Compound 6bi, (E)-3-(8-Methoxy-3,3-dimethyl-3,11-dihydropyrano[3,2-a]carbazol-5-yl)-N-((1-(2-methylbenzyl)piperidin-4-yl)methyl)acrylamide], the results for the IC50 (in series [1]; against AChE (from electric eel)) were 32.8 ± 0.5 µM and 58.4 ± 1.79 µM, respectively.

As for `COc1ccc2[nH]c3c4c(c(/C=C/C(=O)NCC5CCN(Cc6ccccc6Cl)CC5)cc3c2c1)OC(C)(C)C=C4` [Compound 6bj, (E)-N-((1-(2-Chlorobenzyl)piperidin-4-yl)methyl)-3-(8-methoxy-3,3-dimethyl-3,11-dihydropyrano[3,2-a]carbazol-5-yl)acrylamide], the IC50 in series [1] was determined as 37.6 ± 0.56 µM; at AChE (from electric eel) it was 91.1 ± 4.41 µM.

`CC1(C)C=Cc2c(c(/C=C/C(=O)NCCC3CCN(Cc4ccccc4)CC3)cc3c2[nH]c2ccc(C(C)(C)C)cc23)O1` [Compound 6ca, (E)-N-(2-(1-Benzylpiperidin-4-yl)ethyl)-3-(8-(tert-butyl)-3,3-dimethyl-3,11-dihydropyrano[3,2-a]carbazol-5-yl)acrylamide]: the concentration for half-maximal inhibition (IC50) in series [1] came to 23.4 ± 0.95 µM; at AChE (from electric eel), 9 ± 0.86 µM.

As to `CC1(C)C=Cc2c(c(/C=C/C(=O)NCCC3CCN(Cc4ccccc4F)CC3)cc3c2[nH]c2ccc(C(C)(C)C)cc23)O1` [Compound 6cb, (E)-3-(8-(tert-Butyl)-3,3-dimethyl-3,11-dihydropyrano[3,2-a]carbazol-5-yl)-N-(2-(1-(2-fluorobenzyl)piperidin-4-yl)ethyl)acrylamide], the figures for the IC50 (in series [1]; at AChE (from electric eel)) were 19.1 ± 2.04 µM and 10.7 ± 0.2 µM, respectively.

Turning to `Cc1ccccc1CN1CCC(CCNC(=O)/C=C/c2cc3c([nH]c4ccc(C(C)(C)C)cc43)c3c2OC(C)(C)C=C3)CC1` [Compound 6cc, (E)-3-(8-(tert-Butyl)-3,3-dimethyl-3,11-dihydropyrano[3,2-a]carbazol-5-yl)-N-(2-(1-(2-methylbenzyl)piperidin-4-yl)ethyl)acrylamide], the results for the IC50 (in series [1]; against AChE (from electric eel)) were 33.8 ± 0.51 µM and 14.3 ± 0.36 µM, respectively.

In the case of `CC1(C)C=Cc2c(c(/C=C/C(=O)NCCC3CCN(Cc4ccccc4Cl)CC3)cc3c2[nH]c2ccc(C(C)(C)C)cc23)O1` [Compound 6cd, (E)-3-(8-(tert-Butyl)-3,3-dimethyl-3,11-dihydropyrano[3,2-a]carbazol-5-yl)-N-(2-(1-(2-chlorobenzyl)piperidin-4-yl)ethyl)acrylamide], the figures for the IC50 (in series [1]; against AChE (from electric eel)) were 17.3 ± 4.82 µM and 17 ± 1.51 µM, respectively.

As for `COc1ccc2[nH]c3c4c(c(/C=C/C(=O)NCCC5CCN(Cc6ccccc6)CC5)cc3c2c1)OC(C)(C)C=C4` [Compound 6ce, (E)-N-(2-(1-Benzylpiperidin-4-yl)ethyl)-3-(8-methoxy-3,3-dimethyl-3,11-dihydropyrano[3,2-a]carbazol-5-yl)acrylamide], the IC50 came to 26.4 ± 1.4 µM in series [1] and 41.7 ± 1.22 µM against AChE (from electric eel).

For `COc1ccc2[nH]c3c4c(c(/C=C/C(=O)NCCC5CCN(Cc6ccccc6F)CC5)cc3c2c1)OC(C)(C)C=C4` [Compound 6cf, (E)-N-(2-(1-(2-Fluorobenzyl)piperidin-4-yl)ethyl)-3-(8-methoxy-3,3-dimethyl-3,11-dihydropyrano[3,2-a]carbazol-5-yl)acrylamide], the half-maximal inhibitory concentration (IC50) in series [1] is 18 ± 3.35 µM; against AChE (from electric eel), 54.8 ± 7.96 µM.

As to `COc1ccc2[nH]c3c4c(c(/C=C/C(=O)NCCC5CCN(Cc6ccccc6C)CC5)cc3c2c1)OC(C)(C)C=C4` [Compound 6cg, (E)-3-(8-Methoxy-3,3-dimethyl-3,11-dihydropyrano[3,2-a]carbazol-5-yl)-N-(2-(1-(2-methylbenzyl)piperidin-4-yl)ethyl)acrylamide], the concentration for half-maximal inhibition (IC50) in series [1] is 26.7 ± 1.76 µM; against AChE (from electric eel), 73 ± 1.93 µM.

For `COc1ccc2[nH]c3c4c(c(/C=C/C(=O)NCCC5CCN(Cc6ccccc6Cl)CC5)cc3c2c1)OC(C)(C)C=C4` [Compound 6ch, (E)-N-(2-(1-(2-Chlorobenzyl)piperidin-4-yl)ethyl)-3-(8-methoxy-3,3-dimethyl-3,11-dihydropyrano[3,2-a]carbazol-5-yl)acrylamide], the IC50 turned out to be 24.2 ± 4.78 µM in series [1] and 24.6 ± 2.1 µM against AChE (from electric eel).

As a reminder, the IC50 is the point on the concentration scale where inhibition reaches its midpoint.

(Values after publication PMC7957565 (Molecules, 2021).)
